In brackets after ≈: the same amount, converted by molar mass. Like-named read-outs stand apart in the source and are kept apart here.
Assays:
[1] = system: Propionibacterium acnes JCM6425 strain; test: Minimum inhibitory concentration (MIC) against Propionibacterium, turbidity of culture; assay type: cell-based
Protocol: By the measurement of minimum inhibitory concentration (MIC), the ascorbic acid-2-phosphate zinc salt, the ascorbic acid-2-phosphate and zinc salt mixture and the ascorbic acid-2-glucoside and zinc salt mixture of the present invention were determined on their antibacterial action against Propionibacterium.
A platinum-loopful of cells of fresh Propionibacterium acnes JCM6425 strain were inoculated in a test tube containing 5 ml of GAM broth medium (produced by Nissui K.K.) previously sterilized and deaerated. Thereto, APZ, AP+Zn and AG+Zn prepared as in Examples 1 to 3, APM and AG, each diluted in a common ratio of 2 to have a concentration of from 10 to 0.078 mg/ml, were added and cultured at 35° C. for 72 hours under anaerobic conditions. After completion of cultivation, the test tube was thoroughly shaken and the turbidity of the culture solution was measured. The minimum concentration when the turbidity was not increased by cultivation was used as the minimum inhibitory concentration (MIC).

[2] = system: Staphylococcus aureus IFO12732 strain; test: Minimum inhibitory concentration (MIC) against Staphylococcus, turbidity of culture; assay type: cell-based
Protocol: A platinum-loopful of cells of fresh Staphylococcus aureus IFO12732 strain were inoculated in a test tube containing 5 ml of nutrient broth medium (produced by Difco) previously sterilized and deaerated. […] After the completion of cultivation, the turbidity of the culture solution was measured. The minimum concentration when turbidity was not increased by the cultivation was used as the minimum inhibitory concentration (MIC).

[3] = system: hyaluronidase derived from Propionibacterium; test: Hyaluronidase inhibitory activity, partially purified enzyme, hyaluronic acid substrate; assay type: biochemical, Propionibacterium acnes JCM6425; conditions: for Inhibitory Ratio: P. acnes hyaluronidase, pH 7.0, 30° C., 15 minutes
Protocol: The activity of inhibiting hyaluronidase derived from Propionibacterium of the ascorbic acid-2-phosphate zinc salt, the ascorbic acid-2-phosphate and zinc salt mixture and the ascorbic acid-2-glucoside and zinc salt mixture of the present invention was examined.
(§1) The culture solution of Propionibacterium acnes JCM6425 cultured in the same manner as in Example 7 was dialyzed with 50 mM phosphate buffer, then concentrated to about 1/10 the amount using a membrane having a fraction molecular weight of 10,000 and used as the hyaluronidase partially purified product.
To 1.8 ml of 50 mM HEPES buffer (pH: 7.0) separately placed in a small test tube, 0.2 ml of the […] partially purified product was added and thereto, APZ, AP+Zn and AG+Zn prepared in Examples 1 to 3, APM and AG were added each to have concentrations of 0.1 mg/ml, 1 mg/ml and 10 mg/ml. The reaction was started by addition of a substrate hyaluronic acid at a final concentration of 0.8 mg/ml. The reaction was performed at 30° C. for 15 minutes under shaking. After the shaking, 0.1 ml of 0.2M potassium tetraborate was added, kept at 100° C. for 3 minutes and cooled. To this solution, 3 ml of a paradimethylaminobenzaldehyde reagent (obtained by mixing and dissolving 10 g of dimethylaminobenzaldehyde, 12.5 ml of 10N hydrochloric acid and 77.5 ml of glacial acetic acid) 10 times diluted with glacial acetic acid was added and left standing at 37° C. for 20 minutes to allow reaction with N-acetylglucosamine liberated to proceed and thereby cause coloring. The absorbance at a wavelength of 544 nm was measured and the difference from the absorbance of a control test tube where the substrate was not present was used as the activity. The ratio between activity when a sample was present and activity when the sample was not present was calculated as the inhibitory ratio of each sample and the values obtained were compared.

[4] = system: lipase derived from Propionibacterium; test: Lipase inhibitory activity (2), partially purified lipase, paranitrophenyl palmitate substrate; assay type: biochemical, Propionibacterium acnes JCM6425; conditions: for Inhibitory Ratio: P. acnes lipase, pH 6.5, 30° C., 120 minutes
Protocol: The activity of inhibiting lipase derived from Propionibacterium of the ascorbic acid-2-phosphate zinc salt, the ascorbic acid-2-phosphate and zinc salt mixture and the ascorbic acid-2-glucoside and zinc salt mixture of the present invention was examined.
as §1, with “an ultrafiltration film” for “a membrane”, “lipase” for “hyaluronidase”
(§2) To 1.9 ml of 50 mM HEPES buffer (pH: 6.5) separately placed in a small test tube, 0.1 ml of the lipase partially purified product was added and thereto, APZ, AP+Zn and AG+Zn prepared in Examples 1 to 3, APM and AG were added each to have concentrations of 0.1 mg/ml, 1 mg/ml and 10 mg/ml. The reaction was started by addition of a substrate paranitrophenyl palmitate at a final concentration of 0.14 mg/ml. The reaction was performed at 30° C. for 120 minutes under shaking. After completion of the reaction, the absorbance at a wavelength of 405 nm was measured and the difference from the absorbance of a control test tube where the substrate was not present was used as the activity. The ratio between activity when a sample was present and activity when the sample was not present was calculated as the inhibitory ratio of each sample and the values obtained were compared.

[5] = system: Pseudomonas-derived lipase type XIII; test: Lipase inhibitory activity (1), paranitrophenyl palmitate substrate; assay type: biochemical; conditions: for Inhibitory Ratio: Pseudomonas lipase, pH 7.0, 30° C., 10 minutes
Protocol: The activity of inhibiting lipase derived from Pseudomonas of the ascorbic acid-2-phosphate zinc salt, the ascorbic acid-2-phosphate and zinc salt mixture and the ascorbic acid-2-glucoside and zinc salt mixture of the present invention was examined.
as §2, with “Pseudomonas-derived lipase type XIII (produced by Sigma) was dissolved in 100 mM phosphate buffer (pH: 7.0) to have a final concentration of 43 mU/ml. 2” for “To 1.9”, “the resulting solution was poured” for “50 mM HEPES buffer (pH: 6.5) separately placed”, “tube” for “tube, 0.1 ml of the lipase partially purified product was added”, “prepared as” for “prepared”, “of” for “of 0.1 mg/ml,”, “10” for “120”

Structure (SMILES)	MIC ([1]; Propionibacterium acnes JCM6425, GAM broth, 35° C., 72 hours, anaerobic)	MIC ([2]; Staphylococcus aureus IFO12732, nutrient broth, 35° C., 48 hours, shaking)	Inhibitory Ratio ([3]; sample 0.1 mg/ml)	Inhibitory Ratio ([3]; sample 1 mg/ml)	Inhibitory Ratio ([3]; sample 10 mg/ml)	Inhibitory Ratio ([4]; sample 0.1 mg/ml)	Inhibitory Ratio ([4]; sample 1 mg/ml)	Inhibitory Ratio ([4]; sample 10 mg/ml)	Inhibitory Ratio ([5]; sample 1 mg/ml)	Inhibitory Ratio ([5]; sample 10 mg/ml)	MIC ([1]; Cutibacterium acnes, Propionibacterium acnes JCM6425, GAM broth, 35° C., 72 hours, anaerobic, read-out: MIC)	MIC ([2]; Staphylococcus aureus IFO12732, nutrient broth, 35° C., 48 hours, shaking, read-out: MIC)	MIC ([1]; Cutibacterium acnes, JCM6425, 72 h)	antibacterial activity against Propionibacterium (in words) ([1]; summary of Table 1)	MIC ([2]; Staphylococcus aureus, IFO12732, 48 h)	antibacterial action against Staphylococcus (in words) ([2]; summary of Table 2)	hyaluronidase inhibitory activity (in words) ([3]; Propionibacterium-derived hyaluronidase, summary of Table 5)	lipase inhibitory activity (in words) ([4]; Propionibacterium-derived lipase, summary of Table 4)	lipase inhibitory activity (in words) ([5]; Pseudomonas-derived lipase, summary of Table 3)
O=C1O[C@H]([C@@H](O)CO)C(O)=C1O[C@H]1O[C@H](CO)[C@@H](O)[C@H](O)[C@H]1O [AG, L-ascorbic acid-2-O-glucoside]	>10000 µg/mL	10000 µg/mL (≈ 29.6 mM)	10%	13%	22%	0%	0%	0%	0%	0%	–	–	–	–	–	–	–	–	–
O=C1O[C@H]([C@@H](O)CO)C(O)=C1OP(=O)([O-])[O-].[Mg+2] [APM, L-ascorbic acid-2-phosphate magnesium salt]	–	–	22%	32%	34%	0%	0%	0%	0%	0%	> 10000 µg/mL	10000 µg/mL	–	–	–	–	–	–	–
O=C1OC(C(O)CO)C2=C1OP(=O)([O][Zn][O]P1(=O)[O][Zn][O]C3=C(O1)C(=O)OC3C(O)CO)[O][Zn][O]2 (centres unmarked)	–	–	80%	98%	100%	93%	100%	100%	76%	98%	–	–	313 µg/mL	verified to have antibacterial activity	625 µg/mL	verified to have antibacterial action	verified to have strong hyaluronidase inhibitory activity	verified to have strong lipase inhibitory activity	verified to have lipase inhibitory activity

Reference: patent publication US20030162760A1 (priority 1999, published 2003)
